In the NIST ThermoML archive (doi:10.1016/j.fluid.2014.01.038):

Assays:
[1] = mn = molality of the nth substance listed, in mol/kg; conditions: 288.15 K, 101 kPa, Liquid, Pycnometric method
[2] = cn = amount concentration of the nth substance listed, in mol/dm3; conditions: 101 kPa, Liquid, Alternating current cell with electrodes

CC(C)C[C@H](NC(=O)CN)C(=O)O [glycyl-L-leucine] + O
[1]
Conditions | mass density [kg/m3]
m1 = 0.03301 | 1000.8
m1 = 0.04936 | 1001.65
m1 = 0.05894 | 1002.14
m1 = 0.06889 | 1002.67
m1 = 0.07838 | 1003.17
m1 = 0.08821 | 1003.69
m1 = 0.09745 | 1004.12

NCC(=O)NCC(=O)O [glycylglycine] + O
[1]
Conditions | mass density [kg/m3]
m1 = 0.06148 | 1002.65
m1 = 0.09135 | 1004.36
m1 = 0.1538 | 1007.96
m1 = 0.1823 | 1009.6
m1 = 0.2128 | 1011.36
m1 = 0.2534 | 1013.73
m1 = 0.3028 | 1016.61

CC(C)[C@H](NC(=O)CN)C(=O)O [glycyl-L-valine] + O
[1]
Conditions | mass density [kg/m3]
m1 = 0.04051 | 1001.29
m1 = 0.08097 | 1003.45
m1 = 0.1203 | 1005.55
m1 = 0.1403 | 1006.63
m1 = 0.1594 | 1007.68
m1 = 0.1799 | 1008.79
m1 = 0.1995 | 1009.84

CCCCCCCCCCCCn1cc[n+](C)c1.[Br-] [1-dodecyl-3-methylimidazolium bromide] + O
electrical conductivity [S/m], [2]
Conditions | 283.15 K | 288.15 K | 293.15 K | 298.15 K | 303.15 K | 308.15 K
c1 = 0.0006629 | 0.00432 | 0.00491 | 0.0055 | 0.00613 | 0.00676 | 0.00742
c1 = 0.001064 | 0.00695 | 0.00789 | 0.00894 | 0.00994 | 0.011 | 0.0121
c1 = 0.001497 | 0.0098 | 0.0111 | 0.0125 | 0.0139 | 0.0154 | 0.0169
c1 = 0.00184 | 0.012 | 0.0136 | 0.0153 | 0.017 | 0.0188 | 0.0201
c1 = 0.002146 | 0.014 | 0.0158 | 0.0178 | 0.0198 | 0.0216 | 0.0237
c1 = 0.00249 | 0.0158 | 0.0178 | 0.0201 | 0.0222 | 0.0247 | 0.0273
c1 = 0.002909 | 0.0168 | 0.019 | 0.0212 | 0.0239 | 0.027 | 0.0304
c1 = 0.003361 | 0.0175 | 0.0198 | 0.0222 | 0.0251 | 0.0284 | 0.0321
c1 = 0.003884 | 0.0183 | 0.0204 | 0.0233 | 0.0264 | 0.0299 | 0.0338
c1 = 0.00448 | 0.0192 | 0.0215 | 0.0244 | 0.0279 | 0.0315 | 0.0358
c1 = 0.004998 | 0.0199 | 0.0224 | 0.0256 | 0.0291 | 0.033 | 0.0374
c1 = 0.005625 | 0.0206 | 0.0236 | 0.0269 | 0.0305 | 0.0347 | 0.0394
